According to paper PMC2678953 (Journal of peptide science : an official publication of the …, 2008):

Tests used:
GIVA cPLA2 = biological target: T1, GIVA cPLA2 (Homo sapiens, UniProt P47712); test: mixed-micelle PLA2 activity assay; type: biochemical
T1 sequence (P47712 1-749): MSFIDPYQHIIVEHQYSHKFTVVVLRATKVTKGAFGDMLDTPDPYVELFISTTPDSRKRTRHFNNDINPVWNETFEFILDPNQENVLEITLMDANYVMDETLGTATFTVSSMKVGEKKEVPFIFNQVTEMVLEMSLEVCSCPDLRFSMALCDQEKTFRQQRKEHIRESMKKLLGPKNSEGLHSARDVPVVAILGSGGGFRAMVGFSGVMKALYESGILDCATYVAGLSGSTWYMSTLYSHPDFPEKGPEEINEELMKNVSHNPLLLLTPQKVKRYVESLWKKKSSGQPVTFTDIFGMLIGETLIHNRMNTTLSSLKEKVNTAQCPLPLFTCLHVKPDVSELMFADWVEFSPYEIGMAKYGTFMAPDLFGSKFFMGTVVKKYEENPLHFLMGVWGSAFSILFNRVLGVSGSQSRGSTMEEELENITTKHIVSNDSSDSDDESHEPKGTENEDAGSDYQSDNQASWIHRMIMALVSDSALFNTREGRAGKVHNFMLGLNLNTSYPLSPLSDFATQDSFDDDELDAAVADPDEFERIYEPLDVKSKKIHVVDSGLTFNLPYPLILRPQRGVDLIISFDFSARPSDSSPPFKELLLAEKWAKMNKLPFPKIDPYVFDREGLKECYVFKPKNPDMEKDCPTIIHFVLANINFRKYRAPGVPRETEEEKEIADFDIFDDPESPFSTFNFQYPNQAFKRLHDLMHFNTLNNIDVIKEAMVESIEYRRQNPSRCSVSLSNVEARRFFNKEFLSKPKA

GVIA iPLA2 = biological target: T2, GVIA iPLA2 (Homo sapiens, UniProt O60733); test: in vitro GVIA iPLA2 activity assay, XI; type: biochemical
T2 sequence (O60733 1-806): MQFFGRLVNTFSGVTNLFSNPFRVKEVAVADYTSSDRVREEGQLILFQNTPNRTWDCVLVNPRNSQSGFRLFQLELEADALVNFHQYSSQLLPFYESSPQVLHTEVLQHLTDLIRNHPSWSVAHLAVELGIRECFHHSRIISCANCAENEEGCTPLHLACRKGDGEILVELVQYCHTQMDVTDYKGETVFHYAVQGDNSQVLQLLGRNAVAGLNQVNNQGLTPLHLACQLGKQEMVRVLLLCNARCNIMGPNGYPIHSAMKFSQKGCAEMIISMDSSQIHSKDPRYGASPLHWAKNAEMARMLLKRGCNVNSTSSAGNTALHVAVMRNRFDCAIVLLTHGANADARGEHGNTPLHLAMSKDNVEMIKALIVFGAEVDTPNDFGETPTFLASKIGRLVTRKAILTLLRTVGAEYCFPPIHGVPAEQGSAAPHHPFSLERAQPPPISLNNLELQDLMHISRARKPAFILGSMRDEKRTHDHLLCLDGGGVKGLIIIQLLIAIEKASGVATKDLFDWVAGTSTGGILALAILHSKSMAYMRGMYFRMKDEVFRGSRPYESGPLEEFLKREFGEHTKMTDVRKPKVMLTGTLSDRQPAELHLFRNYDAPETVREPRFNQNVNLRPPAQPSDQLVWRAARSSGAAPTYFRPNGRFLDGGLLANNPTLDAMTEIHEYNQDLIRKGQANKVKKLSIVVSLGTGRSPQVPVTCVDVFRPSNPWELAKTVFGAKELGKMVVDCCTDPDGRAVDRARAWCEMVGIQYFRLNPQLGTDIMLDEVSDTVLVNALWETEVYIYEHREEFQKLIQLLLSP

SMILES	GIVA cPLA2 (GIVA cPLA2)	GVIA iPLA2 (GVIA iPLA2)
CCCCCCCCCCCCCCC(=O)C(=O)NCCCNS(=O)(=O)c1ccc(C)cc1 [5a, N-(3-(4-Methylphenylsulfonamido)propyl)-2-oxohexadecanamide]	0.055 ± 0.006 mole fraction (XI(50))	0.076 ± 0.020 mole fraction (XI(50))
CCCCCCCCCCCCCCC(=O)C(=O)N[C@@H](CCCC)CCCNS(C)(=O)=O [14a, (S)-N-[1-(Methylsulfonamido)octan-4-yl]-2-oxohexadecanamide]	0.029 ± 0.019 mole fraction (XI(50))	0.060 ± 0.037 mole fraction (XI(50))
CCCCCCCCCCCCCCC(=O)C(=O)N[C@@H](CCCC)CCCNS(=O)(=O)c1ccc(C)cc1 [14b, (S)-N-[1-(4-Methylphenylsulfonamido)octan-4-yl]-2-oxohexadecanamide]	0.033 ± 0.018 mole fraction (XI(50))	
CCCCCCCCCCCCCCC(=O)C(=O)NCCCC(=O)N(C)S(=O)(=O)c1ccc(C)cc1 [compound 20, N-[4-(N,4-Dimethylphenylsulfonamido)-4-oxobutyl)-2-oxohexadecanamide]	0.033 ± 0.018 mole fraction (XI(50))	
